Inhibition data for two compounds are collected here from ChEMBL document CHEMBL5252509, “In depth analysis of kinase cross screening data to identify chemical starting points for inhibition of the Nek family of kinases” (Medchemcomm, 2018).

Test [1] has as its target Serine/threonine-protein kinase Nek4 (Homo sapiens) (UniProt P51957). Kind of test: Inhibition of NEK4 (unknown origin) at 100 nM relative to control.
The target of test [2] is T1, Cytoplasmic tyrosine-protein kinase BMX (Homo sapiens) (UniProt P51813).
T1 sequence (whole entry): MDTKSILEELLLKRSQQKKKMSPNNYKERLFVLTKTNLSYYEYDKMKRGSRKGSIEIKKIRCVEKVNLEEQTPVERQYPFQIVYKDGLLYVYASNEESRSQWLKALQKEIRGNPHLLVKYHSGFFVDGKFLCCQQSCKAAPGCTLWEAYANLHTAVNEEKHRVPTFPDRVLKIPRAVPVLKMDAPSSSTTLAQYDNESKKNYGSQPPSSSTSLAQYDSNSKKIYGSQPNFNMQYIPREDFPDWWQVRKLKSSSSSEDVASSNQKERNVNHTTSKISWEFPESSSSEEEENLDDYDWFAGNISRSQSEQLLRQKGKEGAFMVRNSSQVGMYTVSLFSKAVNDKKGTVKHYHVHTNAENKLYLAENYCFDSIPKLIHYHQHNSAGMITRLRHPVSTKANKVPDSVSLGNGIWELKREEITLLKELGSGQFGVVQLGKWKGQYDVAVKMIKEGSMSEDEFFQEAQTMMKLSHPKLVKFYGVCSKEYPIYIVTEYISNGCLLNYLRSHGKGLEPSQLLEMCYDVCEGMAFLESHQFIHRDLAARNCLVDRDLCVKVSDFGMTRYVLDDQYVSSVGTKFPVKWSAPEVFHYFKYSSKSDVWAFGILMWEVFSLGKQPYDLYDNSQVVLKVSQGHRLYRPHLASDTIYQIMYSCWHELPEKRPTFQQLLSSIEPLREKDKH
Kind of test: Inhibition of BMX (unknown origin) at 1 uM relative to control.

Test [3] has as its target Fibroblast growth factor receptor 3 (Homo sapiens) (UniProt P22607). The test can be described thus: Inhibition of FGFR3 (unknown origin) at 1 uM relative to control.
For test [4], the target named is Angiopoietin-1 receptor (Homo sapiens) (UniProt Q02763). Kind of test: Inhibition of TIE2 (unknown origin) at 1 uM relative to control.
Angiopoietin-1 receptor (Homo sapiens), sequence (Q02763 whole entry): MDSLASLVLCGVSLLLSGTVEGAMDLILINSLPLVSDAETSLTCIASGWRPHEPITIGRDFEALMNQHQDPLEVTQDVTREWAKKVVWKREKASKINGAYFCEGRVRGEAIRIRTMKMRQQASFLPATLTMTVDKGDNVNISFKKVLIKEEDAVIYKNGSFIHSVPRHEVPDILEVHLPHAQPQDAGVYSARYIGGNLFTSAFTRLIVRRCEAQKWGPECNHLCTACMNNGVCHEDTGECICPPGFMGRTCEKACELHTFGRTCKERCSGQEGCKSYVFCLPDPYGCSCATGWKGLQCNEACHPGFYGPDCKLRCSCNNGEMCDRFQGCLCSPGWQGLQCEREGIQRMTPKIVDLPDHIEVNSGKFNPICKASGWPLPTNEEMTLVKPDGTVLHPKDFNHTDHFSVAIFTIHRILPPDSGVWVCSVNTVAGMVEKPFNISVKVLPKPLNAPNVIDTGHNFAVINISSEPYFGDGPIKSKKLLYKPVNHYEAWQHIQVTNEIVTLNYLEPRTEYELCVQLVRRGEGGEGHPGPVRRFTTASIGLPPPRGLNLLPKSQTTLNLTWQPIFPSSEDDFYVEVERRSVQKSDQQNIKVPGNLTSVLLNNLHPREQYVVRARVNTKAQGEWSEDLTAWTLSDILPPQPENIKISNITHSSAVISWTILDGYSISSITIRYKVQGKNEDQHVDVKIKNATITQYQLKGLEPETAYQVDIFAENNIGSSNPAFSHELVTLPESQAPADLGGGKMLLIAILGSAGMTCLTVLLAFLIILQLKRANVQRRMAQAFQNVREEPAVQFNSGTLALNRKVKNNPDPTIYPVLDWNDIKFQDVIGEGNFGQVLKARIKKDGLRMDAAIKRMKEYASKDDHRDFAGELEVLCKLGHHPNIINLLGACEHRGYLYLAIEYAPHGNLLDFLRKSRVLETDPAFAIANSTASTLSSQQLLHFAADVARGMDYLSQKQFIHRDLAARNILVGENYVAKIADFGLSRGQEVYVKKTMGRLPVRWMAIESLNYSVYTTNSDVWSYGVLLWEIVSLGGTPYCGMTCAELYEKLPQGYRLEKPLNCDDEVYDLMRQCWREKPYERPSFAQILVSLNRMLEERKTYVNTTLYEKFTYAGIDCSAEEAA
Test [5] concerns the target T2, Mitogen-activated protein kinase kinase kinase 19 (Homo sapiens) (UniProt Q56UN5).
T2 sequence (whole entry): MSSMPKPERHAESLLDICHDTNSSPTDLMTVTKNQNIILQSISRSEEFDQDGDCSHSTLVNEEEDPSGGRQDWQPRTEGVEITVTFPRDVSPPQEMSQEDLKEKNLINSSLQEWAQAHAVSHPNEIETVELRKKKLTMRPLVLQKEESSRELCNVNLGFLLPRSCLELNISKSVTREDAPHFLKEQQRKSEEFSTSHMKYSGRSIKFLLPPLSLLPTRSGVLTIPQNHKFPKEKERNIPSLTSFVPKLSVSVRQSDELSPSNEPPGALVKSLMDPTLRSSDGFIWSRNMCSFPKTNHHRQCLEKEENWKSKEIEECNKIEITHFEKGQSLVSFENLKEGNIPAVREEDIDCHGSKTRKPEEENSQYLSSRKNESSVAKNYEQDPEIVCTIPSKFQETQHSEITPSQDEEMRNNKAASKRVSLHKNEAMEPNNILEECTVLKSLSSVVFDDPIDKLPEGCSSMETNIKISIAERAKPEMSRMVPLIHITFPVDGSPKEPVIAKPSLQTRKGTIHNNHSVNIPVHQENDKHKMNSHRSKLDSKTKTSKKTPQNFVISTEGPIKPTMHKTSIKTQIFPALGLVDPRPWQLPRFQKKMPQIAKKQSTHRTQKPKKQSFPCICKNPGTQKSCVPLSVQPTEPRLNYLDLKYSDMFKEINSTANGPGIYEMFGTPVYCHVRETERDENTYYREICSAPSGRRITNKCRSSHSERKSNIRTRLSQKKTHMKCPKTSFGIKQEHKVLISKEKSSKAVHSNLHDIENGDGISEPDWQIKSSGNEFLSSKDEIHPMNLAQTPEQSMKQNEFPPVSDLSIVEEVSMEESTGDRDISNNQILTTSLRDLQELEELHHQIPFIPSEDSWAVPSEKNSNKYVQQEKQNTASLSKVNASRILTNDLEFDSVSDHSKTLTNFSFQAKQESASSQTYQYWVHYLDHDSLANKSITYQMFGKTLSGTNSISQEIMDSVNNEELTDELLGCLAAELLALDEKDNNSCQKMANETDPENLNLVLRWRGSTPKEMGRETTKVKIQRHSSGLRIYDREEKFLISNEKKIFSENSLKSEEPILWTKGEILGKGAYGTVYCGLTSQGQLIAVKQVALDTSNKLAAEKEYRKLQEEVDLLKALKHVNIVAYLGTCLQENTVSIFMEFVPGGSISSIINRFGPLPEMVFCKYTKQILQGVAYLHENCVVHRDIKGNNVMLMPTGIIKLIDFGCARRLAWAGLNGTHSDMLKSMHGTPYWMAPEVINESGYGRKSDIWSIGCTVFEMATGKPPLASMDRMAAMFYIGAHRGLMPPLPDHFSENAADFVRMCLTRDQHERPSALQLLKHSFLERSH
The test can be described thus: Inhibition of YSK4 (unknown origin) at 1 uM relative to control.

Test [6] concerns the target T3, Serine/threonine-protein kinase Nek10 (Homo sapiens) (UniProt Q6ZWH5).
T3 sequence (whole entry): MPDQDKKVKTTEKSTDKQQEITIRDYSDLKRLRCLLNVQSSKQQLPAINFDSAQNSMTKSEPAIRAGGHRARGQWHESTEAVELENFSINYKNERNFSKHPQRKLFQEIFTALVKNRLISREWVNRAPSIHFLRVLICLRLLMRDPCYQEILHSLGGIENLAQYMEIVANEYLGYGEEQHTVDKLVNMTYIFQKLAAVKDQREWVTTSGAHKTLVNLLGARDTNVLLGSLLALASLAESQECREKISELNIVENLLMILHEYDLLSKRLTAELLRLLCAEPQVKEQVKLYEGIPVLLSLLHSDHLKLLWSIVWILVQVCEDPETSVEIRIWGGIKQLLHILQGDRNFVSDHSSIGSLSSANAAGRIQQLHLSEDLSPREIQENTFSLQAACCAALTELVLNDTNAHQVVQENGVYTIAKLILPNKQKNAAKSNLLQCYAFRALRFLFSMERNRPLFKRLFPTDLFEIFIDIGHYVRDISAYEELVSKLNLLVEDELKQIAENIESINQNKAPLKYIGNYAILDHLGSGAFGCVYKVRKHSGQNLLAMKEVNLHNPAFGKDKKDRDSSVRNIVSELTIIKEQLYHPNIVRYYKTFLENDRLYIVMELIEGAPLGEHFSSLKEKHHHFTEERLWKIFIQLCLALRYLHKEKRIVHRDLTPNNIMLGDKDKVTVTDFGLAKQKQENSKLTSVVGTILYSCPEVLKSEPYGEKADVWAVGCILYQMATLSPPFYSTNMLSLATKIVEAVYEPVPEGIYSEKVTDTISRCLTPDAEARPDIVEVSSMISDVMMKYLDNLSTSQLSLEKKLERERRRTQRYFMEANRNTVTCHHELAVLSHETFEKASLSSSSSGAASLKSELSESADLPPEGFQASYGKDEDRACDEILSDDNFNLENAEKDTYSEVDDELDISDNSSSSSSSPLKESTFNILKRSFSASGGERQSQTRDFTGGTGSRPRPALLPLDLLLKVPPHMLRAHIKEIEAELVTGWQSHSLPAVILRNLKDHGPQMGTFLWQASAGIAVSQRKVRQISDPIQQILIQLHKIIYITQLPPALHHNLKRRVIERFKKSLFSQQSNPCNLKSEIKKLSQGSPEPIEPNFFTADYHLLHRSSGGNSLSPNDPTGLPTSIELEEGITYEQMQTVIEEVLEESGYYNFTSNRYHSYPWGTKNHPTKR
The test can be described thus: Inhibition of NEK10 (unknown origin) at 1 uM relative to control.

Molecules are shown by their SMILES.

Fibroblast growth factor receptor 3 (Homo sapiens), sequence (P22607 23-806 limits assumed): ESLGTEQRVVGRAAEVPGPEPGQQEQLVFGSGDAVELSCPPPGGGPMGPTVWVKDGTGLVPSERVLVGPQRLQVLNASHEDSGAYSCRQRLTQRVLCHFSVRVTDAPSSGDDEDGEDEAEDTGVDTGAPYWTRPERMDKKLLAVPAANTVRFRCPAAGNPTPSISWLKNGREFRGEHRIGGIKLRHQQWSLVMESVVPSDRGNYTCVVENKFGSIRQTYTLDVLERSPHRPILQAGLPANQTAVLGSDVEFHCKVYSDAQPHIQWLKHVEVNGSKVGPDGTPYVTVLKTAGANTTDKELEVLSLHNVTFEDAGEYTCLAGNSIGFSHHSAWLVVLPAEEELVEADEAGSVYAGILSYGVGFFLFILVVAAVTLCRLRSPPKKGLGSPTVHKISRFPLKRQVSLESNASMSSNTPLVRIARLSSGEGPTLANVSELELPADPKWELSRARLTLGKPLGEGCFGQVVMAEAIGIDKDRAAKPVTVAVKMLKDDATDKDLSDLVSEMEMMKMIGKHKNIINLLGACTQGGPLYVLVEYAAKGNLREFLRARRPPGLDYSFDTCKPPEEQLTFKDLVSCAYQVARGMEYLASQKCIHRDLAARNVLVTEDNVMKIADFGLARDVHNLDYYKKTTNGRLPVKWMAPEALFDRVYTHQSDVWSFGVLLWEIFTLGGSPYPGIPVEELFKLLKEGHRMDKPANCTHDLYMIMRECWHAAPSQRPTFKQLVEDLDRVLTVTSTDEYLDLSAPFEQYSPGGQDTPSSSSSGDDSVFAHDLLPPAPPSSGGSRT
Serine/threonine-protein kinase Nek4 (Homo sapiens), sequence (P51957 whole entry, looked up): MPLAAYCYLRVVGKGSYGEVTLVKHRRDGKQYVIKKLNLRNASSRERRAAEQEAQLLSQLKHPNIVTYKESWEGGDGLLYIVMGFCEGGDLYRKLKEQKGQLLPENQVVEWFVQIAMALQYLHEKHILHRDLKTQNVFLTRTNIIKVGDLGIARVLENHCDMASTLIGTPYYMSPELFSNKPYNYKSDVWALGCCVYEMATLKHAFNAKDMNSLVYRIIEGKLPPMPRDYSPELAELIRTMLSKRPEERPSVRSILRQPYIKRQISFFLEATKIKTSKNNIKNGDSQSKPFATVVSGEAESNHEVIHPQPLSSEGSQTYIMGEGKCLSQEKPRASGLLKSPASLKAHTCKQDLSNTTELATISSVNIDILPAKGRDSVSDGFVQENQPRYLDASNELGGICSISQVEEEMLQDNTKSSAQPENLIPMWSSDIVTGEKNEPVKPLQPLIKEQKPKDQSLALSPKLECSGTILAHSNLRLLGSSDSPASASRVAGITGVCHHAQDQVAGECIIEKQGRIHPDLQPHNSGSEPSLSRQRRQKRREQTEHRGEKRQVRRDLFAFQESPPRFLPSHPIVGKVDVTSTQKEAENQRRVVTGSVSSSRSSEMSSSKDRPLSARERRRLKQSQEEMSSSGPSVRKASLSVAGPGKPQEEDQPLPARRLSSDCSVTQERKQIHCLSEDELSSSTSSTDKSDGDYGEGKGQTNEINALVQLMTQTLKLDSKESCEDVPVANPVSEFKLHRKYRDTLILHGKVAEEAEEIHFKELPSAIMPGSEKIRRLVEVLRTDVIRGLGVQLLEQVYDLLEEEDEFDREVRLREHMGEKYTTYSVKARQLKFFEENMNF

As usually defined, the inhibition is the drop in the measured response relative to a control, in per cent. `Ic1ccc(Oc2cncc3sc(-c4nn[nH]n4)cc23)cc1` displayed an inhibition in test [1] of 47.5%.
As for `Cc1cc2cn[nH]c2cc1-c1cccc2c(N)c(C(N)=O)nnc12`, the inhibition in test [2] worked out at 83%; in test [3] it was 0%; in test [4], 31%; in test [5], 71%; in test [6] it was 86%.
